# Assays:
# [1] = Antibiotic iontophoresis in sheep tibia, antibiotic concentration in bone samples; details: 1% solution, 100 volts
# Procedure: Quantitative analysis was then carried out to test iontophoresis as a means of antibiotic delivery in allograft bone. Specimens of sheep tibia were prepared as described above. […] A potential difference of 100 volts was applied for 1 minute, 5 minutes or 10 minutes with controls being set up the same way for 10 minutes except no potential difference was applied. A recording of current passed for each specimen was made.
# Each sample was then washed in water and dried. Samples from 10 the endosteal and periosteal surfaces were then taken by drilling the bone using a 3 mm low speed drill, in 10 positions on each surface, and crushed to a fine powder. To a known mass of each sample was added distilled water (2 ml) and the sample agitated using ultrasound. The sample was then centrifuged and the supernatant removed and the process repeated a further 2 times. The last wash was left to soak for 12 hours before centrifuging. […] The supernatant solutions were then analysed for antibiotic content; for gentamicin using Fluorescence Polarisation Immuno Assay (Abbot Axsym Analyser); and for flucloxacillin the assays were performed using High Performance Liquid Chromatography (HPLC) technique. From the levels in the supernatant solutions, the antibiotic concentrations in the bone samples were calculated. […]
# Staphylococcus aureus = details: varies with different phage types; cited from earlier work
substance,measurement,setting,value
gentamicin Sulphate,plateau level in endosteal and periosteal specimens,[1],about 150 mg/Kg
same,minimum inhibitory concentration,Staphylococcus aureus,approximately 0.25 mg/L

# From patent US6602296B1, “Chemical supplementation of bone” (The University of Western Australia, priority 1997, dated 2003)
